Results published in paper PMC11243177, “The Discovery, Molecular Cloning, and Characterization of Dextransucrase LmDexA and Its Active Truncated Mutant from Leuconostoc mesenteroides NN710” (Molecules, 2024).

Target: T1, ΔN190LmDexA (Leuconostoc mesenteroides, UniProt Q03VD8)
T1 construct: gene LEUM_1747; N-terminal 190 residues removed (signal peptide and variable region); 1372 aa, theoretical 150 kDa; borders 191-1562 derived from printed lengths
Assay: DNS assay of released reducing sugar (fructose), Michaelis-Menten fit
Format: biochemical
Details: pH 5.6, 30 °C, 20 mM sodium acetate, 3-300 mM sucrose, 30 min

T1 sequence (Q03VD8 entry or part of it, stated change not applied): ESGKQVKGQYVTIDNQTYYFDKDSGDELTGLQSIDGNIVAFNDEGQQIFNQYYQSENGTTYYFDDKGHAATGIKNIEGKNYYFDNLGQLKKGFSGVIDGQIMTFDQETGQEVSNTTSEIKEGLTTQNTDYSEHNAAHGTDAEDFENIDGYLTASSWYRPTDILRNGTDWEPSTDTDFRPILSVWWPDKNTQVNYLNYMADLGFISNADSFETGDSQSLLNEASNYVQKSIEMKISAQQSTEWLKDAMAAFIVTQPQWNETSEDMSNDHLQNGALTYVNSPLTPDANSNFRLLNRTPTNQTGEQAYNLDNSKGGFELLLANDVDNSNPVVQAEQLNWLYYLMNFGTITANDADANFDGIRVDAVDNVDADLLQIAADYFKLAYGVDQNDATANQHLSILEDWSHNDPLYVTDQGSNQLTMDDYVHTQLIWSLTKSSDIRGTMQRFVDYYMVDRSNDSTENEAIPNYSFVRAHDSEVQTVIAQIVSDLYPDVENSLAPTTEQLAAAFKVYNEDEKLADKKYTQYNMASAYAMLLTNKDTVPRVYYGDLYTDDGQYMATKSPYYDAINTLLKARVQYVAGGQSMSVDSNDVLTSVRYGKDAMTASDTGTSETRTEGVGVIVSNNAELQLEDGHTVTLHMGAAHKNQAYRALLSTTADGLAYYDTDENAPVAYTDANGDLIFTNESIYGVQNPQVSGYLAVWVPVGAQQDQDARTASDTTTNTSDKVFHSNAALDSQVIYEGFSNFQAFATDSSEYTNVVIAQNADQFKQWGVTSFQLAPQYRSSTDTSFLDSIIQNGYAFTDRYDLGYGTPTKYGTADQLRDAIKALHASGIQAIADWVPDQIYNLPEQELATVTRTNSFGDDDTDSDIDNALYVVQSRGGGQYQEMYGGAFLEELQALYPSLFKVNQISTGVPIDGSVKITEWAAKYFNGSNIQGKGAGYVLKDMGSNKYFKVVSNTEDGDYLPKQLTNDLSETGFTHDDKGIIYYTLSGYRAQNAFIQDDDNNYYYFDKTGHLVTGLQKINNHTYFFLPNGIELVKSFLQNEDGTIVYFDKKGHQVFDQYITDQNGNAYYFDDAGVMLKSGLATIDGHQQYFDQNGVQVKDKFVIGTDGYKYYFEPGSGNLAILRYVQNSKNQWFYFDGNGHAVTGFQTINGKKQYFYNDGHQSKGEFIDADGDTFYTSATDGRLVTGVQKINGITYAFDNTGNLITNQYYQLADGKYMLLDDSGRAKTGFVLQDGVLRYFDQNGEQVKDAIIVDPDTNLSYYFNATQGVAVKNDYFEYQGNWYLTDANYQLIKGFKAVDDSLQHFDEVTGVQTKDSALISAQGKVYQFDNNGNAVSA

Km: 13.7 mM
Compound: OC[C@H]1O[C@@](CO)(O[C@H]2O[C@H](CO)[C@@H](O)[C@H](O)[C@H]2O)[C@@H](O)[C@@H]1O [sucrose]
